Key:
Test in all cases: In vitro antibacterial evaluation: minimum inhibitory concentration (MIC), broth dilution method
Format in all cases: cell-based
Escherichia coli = conditions: 5×10^5 CFU/mL, 18 hours at 35° C.
Method in brief: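 Values are minimum inhibitory concentrations, meaning the smallest antibiotic concentration that stops growth of the organism. They come from broth dilution in Muller-Hinton II […] per NCCLS guidance (M7-A2), using 5×10^5 CFU/mL and concentrations from 64 to 0.06 μg/mL.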

Staphylococcus sp. = conditions: for MIC Staphylococcus aureus-SMITH (GC 4543): strain GC 4543; for MIC Staphylococcus haemolyticus (GC 4546): strain GC 4546; for MIC Coagulase Negative Staphylococcus (GC 4547): strain GC 4547; for MIC Coagulase Negative Staphylococcus (GC 4548): strain GC 4548; for MIC Coagulase Negative Staphylococcus (GC 4549): strain GC 4549; for MIC Coagulase Negative Staphylococcus (GC 4551): strain GC 4551
Method in brief: (§1)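 MIC by broth dilution in Mueller-Hinton II medium following NCCLS M7-A2. Inoculum was 5×10^5 CFU/mL and antibiotic was tested over 64-0.06 μg/mL. Gram-positive panel included clinical isolates resistant to methicillin, penicillin and/or vancomycin.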

Enterococcus sp. = conditions: broth dilution, 5×10^5 CFU/mL, 18 hours at 35° C.
Method in brief: as §1

Streptococcus sp. = conditions: broth dilution, 5×10^5 CFU/mL, 18 hours at 35° C.
Method in brief: as §1

[1] = broth dilution, 18 hours at 35° C.

N=C1NCC(C(O)C2NC(=O)C(Cc3ccc(OC4OC(CO)C(OC5OC6COC7(OC6C6OC8(OC56)C5CC6CC(C5)CC8C6)C5CC6CC(C5)CC7C6)C(O)C4O)cc3)NC(=O)C(CC3CCCCC3)NC(=O)CNC(=O)C(CO)NC(=O)C(C(O)C3CNC(=N)N3C3OC(CO)C(O)C(O)C3O)NC2=O)N1 (stereo not shown) [Example 106b]
64 µg/mL: MIC Escherichia coli (ATCC 25922) (Escherichia coli)
4 µg/mL: MIC Staphylococcus haemolyticus (GC 4546) (Staphylococcus sp.) | MIC Staphylococcus haemolyticus (GC 4546) (Staphylococcus sp.; [1]) | MIC Coagulase Negative Staphylococcus (GC 4548) (Staphylococcus sp.) | MIC Coagulase Negative Staphylococcus (GC 4548) (Staphylococcus sp.; [1]) | MIC Coagulase Negative Staphylococcus (GC 4549) (Staphylococcus sp.) | MIC Coagulase Negative Staphylococcus (GC 4549) (Staphylococcus sp.; [1]) | MIC Enterococccus avium (GC 4558) (Enterococcus sp.) | MIC Enterococccus faecium (GC 4557) (Enterococcus sp.)
8 µg/mL: MIC Escherichia coli (GC 4560) (Escherichia coli) | MIC Staphylococcus aureus (ATCC 29213) (Staphylococcus sp.; strain ATCC 29213) | MIC Staphylococcus aureus (GC 1131) (Staphylococcus sp.; strain GC 1131) | MIC Staphylococcus aureus (GC 3051) (Staphylococcus sp.; strain GC 3051) | MIC Staphylococcus aureus (GC 3053) (Staphylococcus sp.; strain GC 3053) | MIC Staphylococcus aureus (GC 4542) (Staphylococcus sp.; strain GC 4542) | MIC Staphylococcus aureus-SMITH (GC 4543) (Staphylococcus sp.; 18 hours at 35° C.) | MIC Staphylococcus aureus-SMITH (GC 4543) (Staphylococcus sp.; [1]) | MIC Staphylococcus aureus (GC 4545) (Staphylococcus sp.; strain GC 4545) | MIC Coagulase Negative Staphylococcus (GC 4547) (Staphylococcus sp.) | MIC Coagulase Negative Staphylococcus (GC 4547) (Staphylococcus sp.; [1]) | MIC Coagulase Negative Staphylococcus (GC 4551) (Staphylococcus sp.) | MIC Coagulase Negative Staphylococcus (GC 4551) (Staphylococcus sp.; [1]) | MIC Enterococccus faecalis (ATCC 29212) (Enterococcus sp.) | MIC Enterococccus faecalis (GC 4552) (Enterococcus sp.) | MIC Enterococccus faecalis (GC 4553) (Enterococcus sp.) | MIC Enterococccus faecalis (GC 6189) (Enterococcus sp.) | MIC Enterococccus faecium (GC 2243) (Enterococcus sp.) | MIC Enterococccus faecium (GC 4556) (Enterococcus sp.) | MIC Enterococcus faecalis (GC 2242) (Enterococcus sp.)
32 µg/mL: MIC Escherichia coli (GC 4559) (Escherichia coli)
0.5 µg/mL: MIC Streptococcus agalactiae (GC 4564) (Streptococcus sp.) | MIC Streptococcus pneumoniae (GC 4565) (Streptococcus sp.) | MIC Streptococcus pneumonine (ATCC 6301) (Streptococcus sp.) | MIC Streptococcus pyogenes (GC 4563) (Streptococcus sp.)
<0.12 µg/mL: MIC Streptococcus pneumoniae (GC 1894) (Streptococcus sp.)
16 µg/mL: MIC Staphylococcus aureus (GC 4541) (Staphylococcus sp.; strain GC 4541) | MIC Staphylococcus aureus (GC 4544) (Staphylococcus sp.; strain GC 4544) | MIC Enterococccus faecalis (GC 2691) (Enterococcus sp.) | MIC Enterococccus faecalis (GC 3059) (Enterococcus sp.) | MIC Enterococccus faecalis (GC 4554) (Enterococcus sp.)

— patent US8247211B2, “Glycopeptide antibiotics” (American Cyanamid Company, priority 2001, dated 2012)
